The source of these data is US10221169B2, “Substituted aminothiazoles for the treatment of tuberculosis” (THE BROAD INSTITUTE, INC., priority 2013, dated 2019).

The test system of assay [1] is Replicating Mtb. Description: microbe, parasite or virus in culture. The following applies: log-phase Mtb; for IC90: Mycobacterium tuberculosis, 72 h, read-out: Replicating Mtb Log MIC IC90 (uM, GFP) (converted). It counts as cell-based, M. tuberculosis H37Rv.
Assay [2] relates to Non-replicating Mtb Carbon-starved. The assay is described as follows: Non-replicating carbon-starved Mtb IC99 by luciferase. The class given is cell-based, M. tuberculosis H37Rv. The following applies: Mycobacterium tuberculosis, luciferase readout, 99% killing.
For assay [3], the system named is M. tuberculosis. The assay is described as follows: MIC of control anti-tuberculosis antibiotics. The class given is cell-based. The following applies: Mycobacterium tuberculosis, MIC used as reference for 10× MIC.

≈ marks a conversion by molar mass, not a printed value. A value given as a limit tells only on which side of the number the result lay.

Usually IC90 stands for the concentration needed for an effect of 90%. Usually MIC stands for the least concentration at which growth counts as inhibited.

On to `O=C(O)COc1cccnc1Nc1nc(-c2ccccn2)cs1` [Compound 21, 2-((2-((4-(pyridin-2-yl)thiazol-2-yl)amtno)pyridin-3-yl)oxy)acetic acid], for which, in assay [1], the concentration for an effect of 90% (IC90) is 125 µM. For the same compound, the MIC in assay [2] was greater than 125 µM. For `Cc1ccnc(Nc2nc(-c3ccccn3)cs2)c1` [Compound 14], the 90% effect concentration (IC90) in assay [1] is 16 µM. With `CN(C)c1ccc(Nc2nc(-c3ccccn3)cs2)nc1` [Compound 6], the IC90 in assay [1] is 125 µM. Moreover, in assay [2], it took 8 µM (≈ 2.38 µg/mL) to inhibit growth (MIC). With `COc1ccc(Nc2nc(-c3ccccn3)cs2)c(OC)c1` [Compound 3], the IC90 in assay [1] is 8 µM. In the case of `CCOC(=O)c1sc(Nc2ncccc2C)nc1-c1ccccn1` [Compound 18, ethyl 2-((3-methylpyridin-2-yl)amino)-4-(pyridin-2-yl)thiazole-5-carboxylate], in assay [1], the IC90 is 4 µM. In assay [2], this compound showed an MIC of 8 µM (≈ 2.72 µg/mL). For the compound `Cc1cccnc1Nc1nc(-c2ccccn2)c(CN2CCOCC2)s1` [Compound 19, N-(3-methylpyridin-2-yl)-5-(morpholinomethyl)-4-(pyridin-2-yl)thiazol-2-amine], the IC90 in assay [1] was 16 µM. The compound also displayed an MIC in assay [2] of 32 µM (≈ 11.8 µg/mL). Turning to `Cc1ccccc1Nc1nc(-c2ccccn2)cs1` [Compound 9], in assay [1], the IC90 is 62 µM. Further, the MIC in assay [2] stood at 8 µM (≈ 2.14 µg/mL). For `Cc1cccnc1Nc1nc(-c2ccncc2)cs1` [Compound 11], the “Replicating Mtb Log MIC IC90 (uM, GFP)” value in assay [1] was “None detected”. `FC(F)(F)c1ccccc1Nc1nc(-c2ccccn2)cs1` [Compound 4]: in assay [1], the IC90 was 62 µM.

As for `Cc1cccnc1Nc1nc(-c2cccnc2)cs1` [Compound 10], in assay [1], the IC90 is 125 µM. Take `CO[C@H]1/C=C/O[C@@]2(C)Oc3c(C)c(O)c4c(O)c(c(/C=N/N5CCN(C)CC5)c(O)c4c3C2=O)NC(=O)/C(C)=C\C=C\[C@H](C)[C@H](O)[C@@H](C)[C@@H](O)[C@@H](C)[C@H](OC(C)=O)[C@@H]1C` [rifampin]: the minimal inhibitory concentration (MIC) in assay [3] came to 0.01 µg/mL. Turning to `CC(C)(C)OC(=O)COc1cccnc1Nc1nc(-c2ccccn2)cs1` [Compound 20, tert-butyl 2-((2-((4-(pyridin-2-yl)thiazol-2-yl)amino)pyridin-3-yl)oxy)acetate], in assay [2], 4 µM (≈ 1.54 µg/mL) was the least that counted as inhibitory (MIC).

`Clc1ccc(Nc2nc(-c3ccccn3)cs2)nc1` [Compound 2]: the IC90 in assay [1] is 2 µM. For the same compound, in assay [2], inhibition of growth (MIC) required 2 µM (≈ 0.578 µg/mL). Regarding `c1ccc(Nc2nc(-c3ccccn3)cs2)nc1` [Compound 13], in assay [1], the IC90 is 8 µM. For `C/C(=N\Nc1nc(C)c(C)s1)c1ccc(Br)cc1` [Compound 15], the IC90 in assay [1] is 62 µM. In assay [2], this compound had an MIC of 16 µM (≈ 5.19 µg/mL). For `Cc1cccnc1Nc1nc(-c2ccccn2)cs1` [Compound 1, N-(3-methylpyridin-2-yl)-4-(pyridin-2-yl)thiazol-2-amine], in that order: 0.5 µM and 1 µM (≈ 0.268 µg/mL). For `COc1ccc(CCNc2nc(-c3ccccn3)cs2)cc1OC` [Compound 5], in that order: 62 µM and 8 µM (≈ 2.73 µg/mL). For `Cc1cccnc1Nc1nc(-c2ccccn2)c(Br)s1` [Compound 17, 5-bromo-N-(3-methylpyridin-2-yl)-4-(pyridin-2-yl)thiazol-2-amine], in that order: less than 1 µM and less than 16 µM.

`Cc1ccc(-c2csc(Nc3ncccc3C)n2)cc1` [Compound 12]: the IC90 in assay [1] is 125 µM.
